Source: patent EP0745595A1, “3-(3-Aryloxyphenyl)-1-(substituted methyl)-s-triazine-2,4,6-oxo or thiotrione herbicidal agents” (American Cyanamid Company, priority 1995, dated 1996)

Tests used:
Format in all cases: in vivo
[1] = system: AMBROSIA ARTEMISIIFOLIA, L.; test: Postemergence herbicidal evaluation, AMBEL (Ragweed, Common);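 note: higher means more injury with 8 approaching complete kill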
Method in brief: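 Common ragweed (Ambrosia artemisiifolia) seedlings were raised in jiffy flats for roughly two weeks, then sprayed postemergence through a nozzle at 40 psi with the test compound dispersed in 50/50 acetone/water carrying 0.5% TWEEN®20. The plants were kept on greenhouse benches under conventional care. Four to five weeks later, injury was rated visually on a 0-9 scale, and repeat tests were averaged.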

[2] = system: GALIUM APARINE; test: Postemergence herbicidal evaluation, GALAP (Galium); design: key to GALAP rating / Herbicidal effect rating, GALAP / GALAP: 0-9 visual rating scale vs untreated control;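 note: higher means more injury with 8 approaching complete kill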
Method in brief: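 Galium (GALAP) seedlings were raised in jiffy flats for about two weeks, then sprayed with test compounds dispersed in 50/50 acetone/water containing 0.5% TWEEN®20, delivered through a nozzle at 40 psi. Plants were kept on greenhouse benches and visually rated 0-9 against a control four to five weeks later; repeat tests were averaged.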

[3] = system: CASSIA OBTUSIFOLIA, L.; test: Postemergence herbicidal evaluation, CASOB (Sicklepod); design: key to CASOB rating / Herbicidal effect rating, CASOB / CASOB: 0-9 visual rating scale vs untreated control;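 note: higher means more injury with 8 approaching complete kill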
Method in brief: (§1)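 Two-week-old seedlings sprayed with compound in 50/50 acetone/water plus 0.5% TWEEN 20 at about 0.125–0.500 kg/ha via nozzle at 40 psi. Kept in greenhouse; rated visually 4–5 weeks after treatment on a 0–9 scale versus untreated control, averaging repeat tests.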

[4] = system: ABUTILON THEOPHRASTI, MEDIC.; test: Postemergence herbicidal evaluation, ABUTH (Velvetleaf);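 note: higher means more injury with 8 approaching complete kill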
Method in brief: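 Velvetleaf (Abutilon theophrasti) seedlings were raised in jiffy flats for about two weeks and then sprayed postemergence. The test compound was dispersed in a 50/50 acetone/water mixture containing 0.5% TWEEN®20 and applied through a nozzle operating at 40 psi. Plants were kept on greenhouse benches and rated 0-9 four to five weeks after treatment.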

[5] = system: IPOMOEA SPP.; test: Postemergence herbicidal evaluation, IPOSS (Morningglory spp.);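 note: higher means more injury with 8 approaching complete kill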
Method in brief: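 Seedlings of morningglory (Ipomoea spp.) were raised in jiffy flats for roughly two weeks. They were then sprayed postemergence through a nozzle at 40 psi with test compound dispersed in 50/50 acetone/water containing 0.5% TWEEN®20 surfactant. Plants were kept on greenhouse benches under standard care and visually rated 0-9 against controls four to five weeks after treatment.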

[6] = system: CHENOPODIUM ALBUM, L.; test: Preemergence herbicidal evaluation, CHEAL (Lambsquarters, Common);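 note: higher means more injury with 8 approaching complete kill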
Method in brief: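 Rated 0-9 by visual comparison with control (stand, vigor, malformation, size, chlorosis, overall appearance) four to five weeks after preemergence soil spray. Dose equivalent to about 0.125 to 0.50 kg per hectare, applied in aqueous acetone to freshly seeded cups kept in greenhouse.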

[7] = system: ECHINOCHLOA CRUS-GALLI, (L) BEAU; test: Postemergence herbicidal evaluation, ECHCG (Barnyardgrass); design: key to ECHCG rating / Herbicidal effect rating, ECHCG / ECHCG: 0-9 visual rating scale vs untreated control
Method in brief: as §1

[8] = system: ZEA MAYS L.; test: Postemergence herbicidal evaluation, ZEAMX (Corn, Field);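 note: higher means more injury with 8 approaching complete kill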
Method in brief: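 Corn seedlings were raised in jiffy flats for roughly two weeks, then sprayed postemergence with the test material dispersed in 50/50 acetone/water containing 0.5% TWEEN®20 surfactant, using a nozzle at 40 psi. Plants were kept on greenhouse benches under standard care and visually rated on a 0-9 scale four to five weeks after treatment.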

[9] = system: CHENOPODIUM ALBUM, L.; test: Postemergence herbicidal evaluation, CHEAL (Lambsquarters, Common);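 note: higher means more injury with 8 approaching complete kill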
Method in brief: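 Seedlings of common lambsquarters (Chenopodium album) were raised in jiffy flats for roughly two weeks, then sprayed postemergence through a nozzle at 40 psi with test compound dispersed in 50/50 acetone/water containing 0.5% TWEEN®20 surfactant. Plants were kept on greenhouse benches under standard care and rated visually on a 0-9 scale versus controls.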

[10] = system: TRITICUM AESTIVUM, CV. APOLLO; test: Postemergence herbicidal evaluation, TRZAWO (Wheat, Winter, CV. APOLLO);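 note: higher means more injury with 8 approaching complete kill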
Method in brief: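 Wheat seedlings, raised in jiffy flats for roughly two weeks, were sprayed postemergence with test compound dispersed in a 50/50 acetone/water mixture containing 0.5% TWEEN®20 surfactant, delivered through a nozzle at 40 psi. Plants were then kept on greenhouse benches under conventional care. Four to five weeks after treatment they were rated visually on a 0-9 scale against an untreated control, and ratings from repeated tests were averaged.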

[11] = system: ORYZA SATIVA, L. TEBONNET; test: Rice tolerance to post-transplant applications under flooded paddy conditions, ORYSAT (Rice, Tebonnet); settings: post-transplanted rice
Method in brief: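 Two ten-day-old Tebonnet rice seedlings were transplanted into silt loam and kept flooded 1.5 to 3 cm deep. Three days after transplanting, the flood surface received the compound in aqueous/acetone 50/50 v/v at about 0.5, 0.25, 0.125 or 0.063 kg/ha. Injury was rated visually on a 0-9 scale versus control after 3-4 weeks.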

Cn1c(=O)[nH]c(=O)n(-c2cc(Oc3c(F)cc(C(F)(F)F)cc3Cl)ccc2[N+](=O)[O-])c1=O [D, reference compound]
AMBEL ([1]; Rate 0.008 kg/ha): 5.0 | AMBEL ([1]; Rate 0.016 kg/ha): 7.3 | AMBEL ([1]; Rate 0.031 kg/ha): 8.0 | AMBEL ([1]; Rate 0.063 kg/ha): 8.0 | AMBEL ([1]; Rate 0.125 kg/ha): 8.5 | GALAP ([2]; Rate 0.008 kg/ha): 4.0 | GALAP ([2]; Rate 0.016 kg/ha): 8.0 | GALAP ([2]; Rate 0.031 kg/ha): 9.0 | GALAP ([2]; Rate 0.063 kg/ha): 8.5 | GALAP ([2]; Rate 0.125 kg/ha): 9.0 | CASOB ([3]; Rate 0.008 kg/ha): 1.0 | CASOB ([3]; Rate 0.016 kg/ha): 4.3 | CASOB ([3]; Rate 0.031 kg/ha): 5.0 | CASOB ([3]; Rate 0.063 kg/ha): 6.0 | CASOB ([3]; Rate 0.125 kg/ha): 9.0 | ABUTH ([4]; Rate 0.008 kg/ha): 0.0 | ABUTH ([4]; Rate 0.016 kg/ha): 8.3 | ABUTH ([4]; Rate 0.031 kg/ha): 8.7 | ABUTH ([4]; Rate 0.063 kg/ha): 9.0 | ABUTH ([4]; Rate 0.125 kg/ha): 9.0 | IPOSS ([5]; Rate 0.016 kg/ha): 7.3 | IPOSS ([5]; Rate 0.031 kg/ha): 7.7 | IPOSS ([5]; Rate 0.063 kg/ha): 7.3 | IPOSS ([5]; Rate 0.125 kg/ha): 9.0 | CHEAL ([6]; Rate 0.031 kg/ha): 9.0 | CHEAL ([6]; Rate 0.063 kg/ha): 9.0 | CHEAL ([6]; Rate 0.125 kg/ha): 9.0 | CHEAL ([6]; Rate 0.250 kg/ha): 9.0 | ECHCG ([7]; Rate 0.016 kg/ha): 3.0 | ECHCG ([7]; Rate 0.031 kg/ha): 1.5 | ECHCG ([7]; Rate 0.063 kg/ha): 2.0 | ECHCG ([7]; Rate 0.125 kg/ha): 2.5 | ZEAMX ([8]; Rate 0.008 kg/ha): 1.0 | ZEAMX ([8]; Rate 0.016 kg/ha): 3.3 | ZEAMX ([8]; Rate 0.031 kg/ha): 3.3 | ZEAMX ([8]; Rate 0.063 kg/ha): 4.2 | ZEAMX ([8]; Rate 0.125 kg/ha): 5.5 | CHEAL ([9]; Rate 0.008 kg/ha): 7.0 | CHEAL ([9]; Rate 0.016 kg/ha): 7.3 | CHEAL ([9]; Rate 0.031 kg/ha): 6.3 | CHEAL ([9]; Rate 0.063 kg/ha): 7.0 | CHEAL ([9]; Rate 0.125 kg/ha): 9.0 | TRZAWO ([10]; Rate 0.016 kg/ha): 3.5 | TRZAWO ([10]; Rate 0.031 kg/ha): 4.5 | TRZAWO ([10]; Rate 0.063 kg/ha): 5.3 | TRZAWO ([10]; Rate 0.125 kg/ha): 5.3 | ORYSAT ([11]; Rate 0.031 kg/ha): 3.0 | ORYSAT ([11]; Rate 0.063 kg/ha): 3.0 | ORYSAT ([11]; Rate 0.125 kg/ha): 3.0 | ORYSAT ([11]; Rate 0.250 kg/ha): 6.0
